Reference: US20040019068A1, “Novel remedies or preventives for angiostenosis” (priority 2000, published 2004)

Experiments:
[1] = clinical tests in Japan (RINSHO IYAKU, 12(1), 65 (1996)); cited from earlier work
[2] = rat, in vivo, po, 100 mg/kg
Text: A compound employed in the invention has a low toxicity, and any compound undergoes a characteristically low accumulation of the toxicity when given continuously. […] In addition, another characteristic advantage is the possibility of giving orally as a therapeutic or prophylactic agent for an angiostenosis.

[3] = molecular target: T1, chymase (Canis lupus familiaris, UniProt P21842); experiment: Chymase activity measurement in implanted blood vessel, dog bypass graft model; assay type: in vivo, dog (beagle); conditions: implanted blood vessel 28 days after bypass grafting; 5 mg/kg orally once a day in capsules for 33 days; angiotensin I substrate
T1 construct: An isolated blood vessel was combined with a 10-fold volume (w/v) of a 20 mM sodium phosphate buffer solution (pH7.4); from tissue; host or cells: implanted jugular vein graft of beagle dogs (homogenate, high-salt/detergent extract supernatant)
T1 sequence (P21842 22-249): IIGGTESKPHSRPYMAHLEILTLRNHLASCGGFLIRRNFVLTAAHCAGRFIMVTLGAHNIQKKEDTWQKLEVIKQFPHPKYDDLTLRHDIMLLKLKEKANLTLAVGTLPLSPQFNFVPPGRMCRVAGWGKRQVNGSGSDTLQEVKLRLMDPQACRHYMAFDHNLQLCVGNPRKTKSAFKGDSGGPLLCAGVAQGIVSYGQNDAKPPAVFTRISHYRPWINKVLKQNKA
Method: (A) Bypass Graft Model Preparation
(§1) 10 Male adult beagles (8 to 10 kg) purchased from NIPPON SLC were anesthetized with an intravenous administration of pentobarbital sodium at 35 mg/kg per animal. The cervical position was incised, and a right jugular vein was isolated and implanted into the carotid artery on the same side (J.Hum.Hypertens., 12 (suppl.1), S21(1999)). After implantation, the incision was sutured and the animal was raised as usual after coming out from the anesthetic.
(§2) 2 Groups each including 5 dogs, which had been subjected to the bypass grafting, were provided as the treatment group and the non-treatment group. In the treatment group, 2-(5-formylamino-6-oxo-2-phenyl-1,6-dihydropyrimidin-1-yl)-N-[2,3-dioxo-1-phenylmethyl-6-(2-pyridyloxy)]hexylacetamide (No. 10) was orally administered at a dose of 5 mg/kg once a day in capsules every day over a period of 33 days in total from 5 days before the bypass grafting through the day of the blood vessel sampling.
28 Days after the bypass grafting, 35 mg/kg of pentobarbital sodium was given intravenously to anesthetize. […]
The chymase activity was measured using angiotensin I as a substrate. […] Immediately after completion of the reaction, angiotensin II produced was quantified using a high performance liquid chromatography, and the chymase activity of the tissue was calculated.

[4] = test system: balloon-injured right carotid artery; experiment: Restenosis test in dog carotid artery balloon injury model; assay type: in vivo, dog (beagle); conditions: 28 days after balloon injury
Method: 21 Male adult beagles (9.4 to 11.4 kg) purchased from NIPPON NOSAN KOGYO were anesthetized with an intravenous administration of pentobarbital sodium at 30 mg/kg per animal. After immobilizing each animal in the spine position, the cervical part was incised and the right and left carotid arteries were exposed. After intravenous administration of 1000 U of heparin sodium, the right carotid artery branch was incised and the tip of a balloon catheter (Baxter 4 Fr, 40 cm) was inserted from the carotid artery to the aortic arch. With the balloon being inflated with application of pressure, the catheter was drawn out to injure the intima of the blood vessel. This procedure was repeated 5 times, and the balloon catheter was taken out, and the incision in the blood vessel was ligated. After suturing the skin incision, 1000 U of heparin sodium and 100 mg of ampicillin sodium were administered intramuscularly for the postoperative maintenance.
3 Groups each including 7 balloon-injured dogs were divided as the high dose treatment group, low dose treatment group and non-treatment group. 2-(5-Formylamino-6-oxo-2-phenyl-1,6-dihydropyrimidin-1-yl)-N-[2,3-dioxo-1-phenylmethyl-6-(2-pyridyloxy)]hexylacetamide (No. 10) was given at a dose of 1 mg/kg in the high dose treatment group and at 0.2 mg/kg in the low dose treatment group once a day in capsules every day over a period of 33 days in total from 5 days before the balloon injury through the day of the blood vessel sampling. In the non-treatment group, vacant capsules were given every day. In all groups, 50 ml or more of a tap water was given forcibly after administration.
Twenty eight (28) days after the balloon injury, 30 mg/kg of pentobarbital sodium was given intravenously to anesthetize. After exsanguination, the right carotid artery as an injured position was isolated, and cut into 3 pieces. About 5 mm was cut out of each of the sections which were distal, proximal and center with regard to the heart. The left carotid artery was also isolated as a non-injury position, from the center of which about 5 mm was cut off, and each was fixed in 10% formalin neutral buffer solution.
Each vascular tissue embedded in a paraffin was shaved into sections, and subjected to a Hematoxylin-Eoshin staining. The intraluminal area, the area inside the intima and the area inside the media were measured using Olympus Image Analyzer Model VM-30.
Based on the areas obtained in (D) described above and using the following equation, a vascular stenosis ratio and a vascular lumen ratio of each position were calculated, and the mean of the three positions was regarded as the value of each individual animal. In the equation, A is an area inside the intima, B is an intraluminal area and C is an area inside the media. […]

[5] = test system: implanted blood vessel (jugular vein implanted into the carotid artery); experiment: Restenosis test in dog bypass graft model; assay type: in vivo, dog (beagle); conditions: implanted blood vessel 28 days after bypass grafting, 5 mg/kg orally once a day for 33 days
Method: as §1, §2
28 Days after the bypass grafting, 35 mg/kg of pentobarbital sodium was given intravenously to anesthetize. The implanted vein and the jugular vein on the other side were isolated, and each was cut at the center. […]
Based on the areas obtained in (D) described above and using the following equation, a vascular stenosis ratio of each individual animal was calculated. […]

[6] = High dose 1 mg/kg once a day in capsules for 33 days, p<0.05 vs non-treatment

Which “side effect in clinical tests” value [1] does the source give for COc1ccc(/C=C/C(=O)Nc2ccccc2C(=O)O)cc1OC [tranilast] here?
Its value is “hepatic dysfunction as a highly frequent side effect”.

For O=CNc1cnc(-c2ccccc2)n(CC(=O)NC(Cc2ccccc2)C(=O)C(=O)CCCOc2ccccn2)c1=O (stereo not drawn) [Compound No. 10, 2-(5-formylamino-6-oxo-2-phenyl-1,6-dihydropyrimidin-1-yl)-N-[2,3-dioxo-1-phenylmethyl-6-(2-pyridyloxy)]hexylacetamide], which toxicological change [2] is on record?
Its toxicological change is “no toxicological change”.

And the Chymase activity [3]?
The Chymase activity was 4.88 ± 0.53 mU/mg protein.

What about the Vascular lumen ratio [4, 6] of the same compound?
The Vascular lumen ratio was 41.6 ± 1.1 %.

And the Vascular stenosis ratio [4, 6]?
The Vascular stenosis ratio was 10.5 ± 1.8 %.

And the Vascular stenosis ratio ([4]; Low dose 0.2 mg/kg once a day in capsules for 33 days)?
The Vascular stenosis ratio was 13.6 ± 2.0%.

What about the Vascular lumen ratio ([4]; Low dose 0.2 mg/kg once a day in capsules for 33 days, B/Cx100) of the same compound?
Its Vascular lumen ratio is 38.4 ± 2.0%.

What about the intima area [5] of the same compound?
Its intima area is 1.78 ± 0.12 mm2.

And the Vascular stenosis ratio ([5]; [(A-B)/(C-A)]x100)?
The Vascular stenosis ratio was 30.9 ± 8.8%.
